According to patent US20240226191A1, “COMPOSITIONS AND METHODS FOR TREATING DISEASE” (MICROBA IP PTY LTD, priority 2021, published 2024):
Entries after “also recorded” stand apart in the source; their conditions may differ.

Legend:
[1] = system: mild to moderate flares of ulcerative colitis; details: cited from earlier work
T84 cells = assay: TEER recovery of barrier integrity after IFNγ (Maestro Pro system); format: cell-based; details: IFNγ for 72 hours, then treatment; extract relative to YG/V control
Protocol: The ability of MH23 to promote recovery of barrier integrity was also assessed by using the Maestro Pro system. Briefly, T84 cells were grown in (DMEM/F12) supplemented with 10% heat-inactivated foetal bovine serum and 1% Penicillin-Streptomycin in T75 flasks at 37° C., 5% C02 until approximately 75% confluent. Cells were seeded at a density of 0.1×10^6 cells in a total of 0.2 mL/well in 96-well CytoView-Z plates and incubated at 37° C., 5% C02 in the Maestro Pro system (Axion BioSystems, Atlanta, GA, USA). Media was refreshed every three days. Once stabile TEER measurements had been established (approximately 100 h after seeding), cells were stimulated with recombinant human IFNγ (100 ng/mL; R&D systems, Minneapolis, MN, USA). At 72 h post-stimulation, cells were washed with dPBS (ThermoFisher Scientific, Waltham, MA, USA) and media was replaced with DMEM/F12 only, or DMEM/F12 supplemented with Pyrrolidine dithiocarbamate (PDTC; 50 μM), 1×YG/V media control or 1×MH23-3 bacterial culture supernatant extracts prepared using Amberlite XAD-7 resin as previously outlined. All conditions were analysed as quadruplicates. At 5 h post-treatment, TEER measurements were recorded, and the observed effect of treatment was presented as the percentage difference in TEER value compared to the control (untreated T84 cells). Statistical significance was determined by unpaired t-test.

[2] = system: IL-8 secretion in the human gut epithelial HCT116 cell line; assay: IL-8 secretion ELISA in IL-1β treated HCT116 cells (NF-κB activation); format: cell-based; details: HCT116 cells treated with IL-1β; cell free CS relative to the medium control
Protocol: For the ELISA assays, 1×10^4 cells/well of HCT116 cells were seeded in duplicate 96 well plates. HCT116 cells were treated with IL-1β (10 ng) and indole-3-carbinol (5 μM) or culture supernatant (10% v/v) as appropriate and incubated at 37° C. for 16 hours. Then, cell supernatants were collected and analysed using an IL-8 human uncoated ELISA Kit according to the manufacturer's instructions.

C57BL/6 female mice [3] = assay: Therapeutic model of DSS induced murine colitis (2.5% DSS); format: in vivo, mouse; details: 2.5% DSS therapeutic model
Protocol: (§1) M. faecis and F. prausnitzii strains were grown to early stationary phase in TY medium. The cell density of the individual cultures was calculated using a Helber Counting Chamber. To prepare the bacterial gavage solutions, individual cultures were centrifuged under a layer of sterile heavy mineral oil at 5,000 g for 10 minutes and the cell-free supernatant was then discarded. The cell pellets were washed in 1.5 mL of sterile anaerobic buffered diluent (38 mL/L each of salt solutions 2 & 3 (McSweeney et al., 2005), 1 mL/L of 0.1% (w/v) resazurin solution, 1 g/L L-cysteine) and then centrifuged again. Finally, the washed cell pellet was resuspended in half strength glycerol solution (15% v/v glycerol solution in anoxic buffered diluent) to a final concentration of 1×10^9 cells/mL, aliquoted and frozen at −80° C. until required. The viability of the cell preparations was confirmed by thawing a single aliquot and streaking on an agar plate. The identity and purity of the individual strain preparations was confirmed by whole genome sequencing.
(§2) Six-week-old C57BL/6 female mice purchased from Animal Resources Centres (Western Australia, Australia) were randomised and then co-housed for seven days prior to experimentation. To induce gut barrier dysfunction, mice were treated with 3% DSS ad libiteum in the drinking water for six days. Naïve age matched control mice were processed and received DSS free drinking water. All treatments started one day prior to provision of DSS and all mice were sacrificed two days after the final DSS treatment. For the treatments, mice were anesthetised with isofluorane and orally gavaged with 200 μl of bacterial preparations or vehicle control. Prednisone (2 mg/kg) was administered following anesthetisation by intraperitoneal injection. Body weights and stool consistency were recorded daily. Stool samples were collected daily. Following sacrifice, the colon, liver and spleen were collected for analysis. Blood was collected by cardiac puncture. In the therapeutic model, six-week-old C57BL/6 female mice purchased from Animal Resources Centres (Western Australia, Australia) were randomised and then co-housed for seven days prior to experimentation. To induce gut barrier dysfunction, mice were treated with 2.5% DSS ad libiteum in the drinking water for six days. Naïve age matched control mice were processed and received DSS free drinking water. All treatments started two days prior to completion of the DSS treatments and all mice were sacrificed five days after the final DSS treatment. For the treatments, mice were anesthetised with isofluorane and orally gavaged with 200 μl of bacterial preparations or vehicle control. Prednisone (2 mg/kg) was administered following anesthetisation by intraperitoneal injection. […]

C57BL/6 female mice [4] = assay: Acute murine model of DSS-induced gut barrier dysfunction (3% DSS); format: in vivo, mouse
Protocol: as §1, §2

[5] = system: IL-23 mediated activation of STAT3; assay: HEK-Blue IL-23 reporter cell line STAT3 inducible SEAP reporter assay; format: cell-based, human; details: cell free culture supernatant (strains grown in TY medium); tofacitinib as inhibitor control
Protocol: To assess STAT3 suppressive activity, three independent colonies were inoculated and grown until early stationary phase. Then, each seed culture broth was used to inoculate two technical replicates each generating six technical replicates from three biological replicates. The technical replicates were grown until early stationary phase and then cell free culture supernatant was harvested as previously described (Giri et al., 2019). Culture supernatants were size fractionated by passing through a 3 kDa CENTRICON® column according to the manufacturer's (Merck Millipore) instructions.
STAT3 activity was assessed using the HEK Blue IL-23 cell line (Invivogen). Briefly, 50,000 cells per well were seeded in triplicate in a 96-well plate 24 hours prior to the start of the assay. Bacteria supernatant or sterile bacterial medium were mixed at a final concentration of 10%, 25%, or 50% v/v with recombinant human IL-23 (rhIL-23, R&D systems) at a final concentration of 5 ng/mL. This mixture was then added directly to the cells and incubated at 37° C. for 6 hours. […] STAT3 regulated SEAP reporter activity was assessed using Quanti Blue solution as recommended by the manufacturer (Invivogen). […] Cytotoxicity was assessed using MTT assay. […] Cytotoxicity was assessed by measuring absorbance at 540 nm as recommended by the manufacturer (Invitrogen, Thermo Fisher, Australia).

male BALB/c mice = assay: Acute murine model of TNBS-induced colitis; format: in vivo, mouse
Protocol: Groups of 5 or 10 male BALB/c mice were used. Mice were fasted overnight (Day 1) before 2,4,6-Trinitrobenzene sulfonic acid solution (TNBS challenge on Day 2. Distal colitis was induced by intracolonic instillation of TNBS (1 mg in 0.1 mL 50% ethanol) after which, animals were kept in a vertical position for 30 seconds to ensure that the solution remained in the colon. For the treatments, mice were orally gavaged with 200 μl of M. faecis MH23-3 at 1×10^9 cells/day or vehicle (sterile glycerol and phosphate salt solution) starting from Day 1 (i.e., 1 day before TNBS) to Day 5 for a total of 5 consecutive days (Days 1-5). The positive control Cyclosporin A was given at 75 mg/kg by oral gavage once daily from Day 1 (i.e., 1 day before TNBS) to Day 4 for a total of 4 consecutive days (Days 1-4). On the Day of TNBS challenge, vehicle, M. faecis MH-23.3 and Cyclosporine A were given at 2 hours before TNBS. Animals were sacrificed on Day 5; blood was collected from all animals by cardiac puncture. The colon tissue was also harvested and snap frozen with liquid nitrogen for cytokine measurement. On Day 5, the mice were euthanized by CO2 asphyxiation. Each colon was removed, rinsed, and then cut from 4 cm from the anus. The tissue sections were fixed in 10% formalin and kept in 70% ethanol for histopathology. […]

Nc1ccc(O)c(C(=O)O)c1 [Mesalmine]
response rates [1]: 40%-70%

S=C(S)N1CCCC1 [PDTC, Pyrrolidine dithiocarbamate]
TEER after IFNγ treatment (restoration of barrier integrity) (T84 cells): ameliorated

OCc1c[nH]c2ccccc12 [indole-3-carbinol]
IL-8 secretion [2]: prevented

C[C@]12C=CC(=O)C=C1CC[C@@H]1[C@@H]2C(=O)C[C@@]2(C)[C@H]1CC[C@]2(O)C(=O)CO [prednisone]
epithelial injury (C57BL/6 female mice [3]): ameliorated | inflammation score (C57BL/6 female mice [3]): ameliorated | pathology / histopathological score (C57BL/6 female mice [3]): ameliorated | endoscopic disease activity (C57BL/6 female mice [3]; relative to the vehicle treatment group): significant reduction | disease pathology / histopathological score (C57BL/6 female mice [4]): significant improvement | epithelial injury (C57BL/6 female mice [4]): ameliorated | inflammation score (C57BL/6 female mice [4]): ameliorated | DSS-induced weight loss (C57BL/6 female mice [4]; daily treatment): exacerbated

C[C@@H]1CCN(C(=O)CC#N)C[C@@H]1N(C)c1ncnc2[nH]ccc12 [tofacitinib]
IL-23 mediated STAT3 activation (SEAP reporter activity) [5]: prevented; also recorded: inhibits

cyclosporine A
TNBS-induced histological damage (male BALB/c mice): ameliorated
